Experimental data from ChEMBL document CHEMBL4507263, “Data for DCP probe BAY-474” (2021).

Tests used:
[1] = target: Serine/threonine-protein kinase MARK1 (Homo sapiens) (UniProt Q9P0L2); experiment: MARK1 (h) Millipore kinase activity assay; conditions: Compound concentration 1.0 uM
[2] = target: Serine/threonine-protein kinase Nek3 (Homo sapiens) (UniProt P51956); experiment: NEK3 (h) Millipore kinase activity assay; conditions: Compound concentration 1.0 uM
[3] = target: Serine/threonine-protein kinase TAO2 (Homo sapiens) (UniProt Q9UL54); experiment: TAO2 (h) Millipore kinase activity assay; conditions: Compound concentration 1.0 uM
[4] = target: Serine/threonine-protein kinase Nek6 (Homo sapiens) (UniProt Q9HC98); experiment: NEK6 (h) Millipore kinase activity assay; conditions: Compound concentration 1.0 uM
[5] = target: Protein kinase C theta type (Homo sapiens) (UniProt Q04759); experiment: PKCtheta (h) Millipore kinase activity assay; conditions: Compound concentration 1.0 uM
[6] = target: Cytoplasmic tyrosine-protein kinase BMX (Homo sapiens) (UniProt P51813); experiment: Bmx (h) Millipore kinase activity assay; conditions: Compound concentration 1.0 uM
[7] = target: Vascular endothelial growth factor receptor 2 (Homo sapiens) (UniProt P35968); experiment: KDR (h) Millipore kinase activity assay; conditions: Compound concentration 1.0 uM
[8] = target: Glutamate NMDA receptor (Rattus norvegicus) (UniProt P35439+Q00959+Q00960+Q00961+Q62645+Q8VHN2+Q9R1M7); conditions: Compound concentration 10.0 uM
[9] = target: B1 bradykinin receptor (Homo sapiens) (UniProt P46663); experiment: Inhibition of Bradykinin B1 at 10 µM in the Eurofins-Panlabs radioligand binding assay (Eurofins_assay_212510); conditions: Compound concentration 10.0 uM
[10] = target: Serine/threonine-protein kinase NLK (Homo sapiens) (UniProt Q9UBE8); experiment: NLK (h) Millipore kinase activity assay; conditions: Compound concentration 1.0 uM
[11] = target: Fibroblast growth factor receptor 1 (Homo sapiens) (UniProt P11362); experiment: FGFR1 (h) Millipore kinase activity assay; conditions: Compound concentration 1.0 uM
[12] = target: Sodium-dependent dopamine transporter (Homo sapiens) (UniProt Q01959); conditions: Compound concentration 10.0 uM
[13] = tested on: Epidermal growth factor receptor (Homo sapiens), P00533 [UNDEFINED MUTATION]; conditions: Compound concentration 1000.0 nM
[14] = tested on: Fibroblast growth factor receptor 3 (Homo sapiens), P22607 [G697C]; conditions: Compound concentration 1000.0 nM
[15] = target: Activin receptor type-2A (Homo sapiens) (UniProt P27037); conditions: Compound concentration 1000.0 nM
[16] = target: Phosphatidylinositol 5-phosphate 4-kinase type-2 gamma (Homo sapiens) (UniProt Q8TBX8); conditions: Compound concentration 1000.0 nM
[17] = target: Vascular endothelial growth factor receptor 2 (Homo sapiens) (UniProt P35968); conditions: Compound concentration 1000.0 nM
[18] = target: Serine/threonine-protein kinase MARK2 (Homo sapiens) (UniProt Q7KZI7); conditions: Compound concentration 1000.0 nM
[19] = target: Tyrosine-protein kinase receptor UFO (Homo sapiens) (UniProt P30530); conditions: Compound concentration 1000.0 nM
[20] = target: TGF-beta receptor type-1 (Homo sapiens) (UniProt P36897); conditions: Compound concentration 1000.0 nM
[21] = target: Mitogen-activated protein kinase 8 (Homo sapiens) (UniProt P45983); conditions: Compound concentration 1000.0 nM
[22] = target: Ribosomal protein S6 kinase alpha-6 (Homo sapiens) (UniProt Q9UK32); conditions: Compound concentration 1000.0 nM
[23] = target: NUAK family SNF1-like kinase 2 (Homo sapiens) (UniProt Q9H093); conditions: Compound concentration 1000.0 nM
[24] = target: Wee1-like protein kinase (Homo sapiens) (UniProt P30291); conditions: Compound concentration 1000.0 nM
[25] = tested on: Epidermal growth factor receptor (Homo sapiens), P00533 [T790M]; conditions: Compound concentration 1000.0 nM
[26] = target: Mitogen-activated protein kinase kinase kinase 9 (Homo sapiens) (UniProt P80192); conditions: Compound concentration 1000.0 nM
[27] = target: Ribosomal protein S6 kinase alpha-4 (Homo sapiens) (UniProt O75676); conditions: Compound concentration 1000.0 nM
[28] = target: Calcium/calmodulin-dependent protein kinase type 1G (Homo sapiens) (UniProt Q96NX5); conditions: Compound concentration 1000.0 nM
[29] = target: Tyrosine-protein kinase BTK (Homo sapiens) (UniProt Q06187); conditions: Compound concentration 1000.0 nM
[30] = target: Mitogen-activated protein kinase kinase kinase 19 (Homo sapiens) (UniProt Q56UN5); conditions: Compound concentration 1000.0 nM
[31] = target: Calcium/calmodulin-dependent protein kinase type II subunit delta (Homo sapiens) (UniProt Q13557); conditions: Compound concentration 1000.0 nM
[32] = target: GABA-A receptor; anion channel (Rattus norvegicus) (UniProt O09028+P15431+P18506+P18508+P19969+P20236+P23574+P23576+P28471+P28473+P30191+P62813+P63079+P63138+Q91ZM7+Q9ES14); conditions: Compound concentration 10.0 uM
[33] = target: Ephrin type-A receptor 5 (Homo sapiens) (UniProt P54756); conditions: Compound concentration 1000.0 nM
[34] = target: Myosin light chain kinase (Homo sapiens) (UniProt Q32MK0); conditions: Compound concentration 1000.0 nM
[35] = target: Cyclin-dependent kinase 8 (Homo sapiens) (UniProt P49336); conditions: Compound concentration 1000.0 nM
[36] = target: Inhibitor of nuclear factor kappa-B kinase subunit epsilon (Homo sapiens) (UniProt Q14164); conditions: Compound concentration 1000.0 nM
[37] = target: Serine/threonine-protein kinase MRCK beta (Homo sapiens) (UniProt Q9Y5S2); conditions: Compound concentration 1000.0 nM
[38] = tested on: Tyrosine-protein kinase ABL1 (Homo sapiens), P00519 [T315I]; conditions: Compound concentration 1000.0 nM
[39] = tested on: Tyrosine-protein kinase ABL1 (Homo sapiens), P00519 [Q252H]; conditions: Compound concentration 1000.0 nM
[40] = target: Phosphatidylinositol 3-kinase catalytic subunit type 3 (Homo sapiens) (UniProt Q8NEB9); conditions: Compound concentration 1000.0 nM
[41] = target: Serine/threonine-protein kinase Sgk2 (Homo sapiens) (UniProt Q9HBY8); conditions: Compound concentration 1000.0 nM
[42] = tested on: Receptor-type tyrosine-protein kinase FLT3 (Homo sapiens), P36888 [D835H]; conditions: Compound concentration 1000.0 nM
[43] = target: Serine/threonine-protein kinase TAO3 (Homo sapiens) (UniProt Q9H2K8); conditions: Compound concentration 1000.0 nM

Sequence of Vascular endothelial growth factor receptor 2 (Homo sapiens) (P35968 whole entry): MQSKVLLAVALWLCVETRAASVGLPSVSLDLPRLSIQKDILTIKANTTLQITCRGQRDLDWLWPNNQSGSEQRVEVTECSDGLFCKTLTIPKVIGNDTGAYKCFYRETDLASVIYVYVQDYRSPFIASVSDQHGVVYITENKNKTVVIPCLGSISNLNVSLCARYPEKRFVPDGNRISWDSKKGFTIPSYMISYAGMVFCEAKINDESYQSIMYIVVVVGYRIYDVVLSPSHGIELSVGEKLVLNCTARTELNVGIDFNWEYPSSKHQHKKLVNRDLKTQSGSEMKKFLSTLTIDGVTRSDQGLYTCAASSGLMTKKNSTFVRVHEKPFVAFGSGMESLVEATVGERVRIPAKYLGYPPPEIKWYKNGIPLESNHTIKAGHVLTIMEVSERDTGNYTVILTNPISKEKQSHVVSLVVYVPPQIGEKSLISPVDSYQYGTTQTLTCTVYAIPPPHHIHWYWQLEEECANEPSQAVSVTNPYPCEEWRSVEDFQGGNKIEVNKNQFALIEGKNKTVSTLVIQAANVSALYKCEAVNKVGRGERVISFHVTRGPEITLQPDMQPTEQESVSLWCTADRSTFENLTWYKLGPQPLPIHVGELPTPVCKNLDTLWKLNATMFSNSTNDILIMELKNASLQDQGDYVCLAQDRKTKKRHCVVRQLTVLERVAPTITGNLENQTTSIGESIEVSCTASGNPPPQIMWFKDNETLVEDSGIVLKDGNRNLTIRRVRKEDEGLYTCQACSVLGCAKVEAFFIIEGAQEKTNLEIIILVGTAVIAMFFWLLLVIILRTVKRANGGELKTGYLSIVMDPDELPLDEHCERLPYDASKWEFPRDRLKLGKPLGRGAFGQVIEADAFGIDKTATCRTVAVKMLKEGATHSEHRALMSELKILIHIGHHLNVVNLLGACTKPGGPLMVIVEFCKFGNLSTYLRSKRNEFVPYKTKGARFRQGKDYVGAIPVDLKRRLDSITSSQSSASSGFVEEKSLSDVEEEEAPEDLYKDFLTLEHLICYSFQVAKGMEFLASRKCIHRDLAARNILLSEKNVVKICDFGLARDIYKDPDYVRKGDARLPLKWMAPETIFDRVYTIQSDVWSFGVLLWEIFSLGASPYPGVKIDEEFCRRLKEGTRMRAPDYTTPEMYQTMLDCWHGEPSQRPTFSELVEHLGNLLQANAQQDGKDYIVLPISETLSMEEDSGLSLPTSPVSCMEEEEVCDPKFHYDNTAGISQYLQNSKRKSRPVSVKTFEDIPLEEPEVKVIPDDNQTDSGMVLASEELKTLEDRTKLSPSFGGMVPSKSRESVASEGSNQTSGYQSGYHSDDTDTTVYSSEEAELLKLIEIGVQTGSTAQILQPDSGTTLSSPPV
Sequence of Cytoplasmic tyrosine-protein kinase BMX (Homo sapiens) (P51813 whole entry, looked up): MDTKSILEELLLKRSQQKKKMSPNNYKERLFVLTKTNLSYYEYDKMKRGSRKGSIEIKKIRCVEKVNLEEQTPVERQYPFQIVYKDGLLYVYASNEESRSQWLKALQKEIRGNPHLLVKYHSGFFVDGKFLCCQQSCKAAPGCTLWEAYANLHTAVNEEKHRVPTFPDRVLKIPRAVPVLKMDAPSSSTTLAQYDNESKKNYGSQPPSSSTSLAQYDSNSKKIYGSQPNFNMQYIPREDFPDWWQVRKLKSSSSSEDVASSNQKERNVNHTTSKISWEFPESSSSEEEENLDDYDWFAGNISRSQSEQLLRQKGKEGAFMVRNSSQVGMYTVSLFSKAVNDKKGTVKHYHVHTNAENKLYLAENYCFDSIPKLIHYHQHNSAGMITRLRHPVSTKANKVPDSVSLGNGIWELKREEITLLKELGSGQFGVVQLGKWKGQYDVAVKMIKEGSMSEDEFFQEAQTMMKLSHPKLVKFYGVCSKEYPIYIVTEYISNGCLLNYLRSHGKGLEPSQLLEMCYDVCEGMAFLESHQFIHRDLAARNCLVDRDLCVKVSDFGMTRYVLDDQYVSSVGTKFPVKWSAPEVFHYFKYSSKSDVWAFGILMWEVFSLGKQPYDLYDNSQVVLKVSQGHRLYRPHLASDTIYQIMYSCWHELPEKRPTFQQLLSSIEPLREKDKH
Sequence of Tyrosine-protein kinase BTK (Homo sapiens) (Q06187 whole entry): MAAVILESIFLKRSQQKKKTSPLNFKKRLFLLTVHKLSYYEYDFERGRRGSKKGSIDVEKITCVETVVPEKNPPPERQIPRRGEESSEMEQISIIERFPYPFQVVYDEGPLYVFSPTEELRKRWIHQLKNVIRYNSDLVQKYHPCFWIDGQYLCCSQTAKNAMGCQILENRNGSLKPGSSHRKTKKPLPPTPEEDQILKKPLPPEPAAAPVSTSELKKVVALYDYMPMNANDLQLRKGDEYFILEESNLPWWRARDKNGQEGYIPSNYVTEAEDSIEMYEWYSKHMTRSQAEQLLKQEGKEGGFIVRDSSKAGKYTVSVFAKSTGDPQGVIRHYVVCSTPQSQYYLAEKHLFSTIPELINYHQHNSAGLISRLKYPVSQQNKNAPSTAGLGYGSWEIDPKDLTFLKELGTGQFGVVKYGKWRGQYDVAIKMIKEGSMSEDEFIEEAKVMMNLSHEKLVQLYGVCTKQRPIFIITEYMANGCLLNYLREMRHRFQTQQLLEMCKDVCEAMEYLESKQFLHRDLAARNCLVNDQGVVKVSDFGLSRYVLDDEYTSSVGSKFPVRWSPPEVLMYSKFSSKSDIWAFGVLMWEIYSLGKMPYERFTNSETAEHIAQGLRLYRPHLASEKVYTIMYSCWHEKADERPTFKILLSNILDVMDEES
Sequence of Phosphatidylinositol 3-kinase catalytic subunit type 3 (Homo sapiens) (Q8NEB9 whole entry): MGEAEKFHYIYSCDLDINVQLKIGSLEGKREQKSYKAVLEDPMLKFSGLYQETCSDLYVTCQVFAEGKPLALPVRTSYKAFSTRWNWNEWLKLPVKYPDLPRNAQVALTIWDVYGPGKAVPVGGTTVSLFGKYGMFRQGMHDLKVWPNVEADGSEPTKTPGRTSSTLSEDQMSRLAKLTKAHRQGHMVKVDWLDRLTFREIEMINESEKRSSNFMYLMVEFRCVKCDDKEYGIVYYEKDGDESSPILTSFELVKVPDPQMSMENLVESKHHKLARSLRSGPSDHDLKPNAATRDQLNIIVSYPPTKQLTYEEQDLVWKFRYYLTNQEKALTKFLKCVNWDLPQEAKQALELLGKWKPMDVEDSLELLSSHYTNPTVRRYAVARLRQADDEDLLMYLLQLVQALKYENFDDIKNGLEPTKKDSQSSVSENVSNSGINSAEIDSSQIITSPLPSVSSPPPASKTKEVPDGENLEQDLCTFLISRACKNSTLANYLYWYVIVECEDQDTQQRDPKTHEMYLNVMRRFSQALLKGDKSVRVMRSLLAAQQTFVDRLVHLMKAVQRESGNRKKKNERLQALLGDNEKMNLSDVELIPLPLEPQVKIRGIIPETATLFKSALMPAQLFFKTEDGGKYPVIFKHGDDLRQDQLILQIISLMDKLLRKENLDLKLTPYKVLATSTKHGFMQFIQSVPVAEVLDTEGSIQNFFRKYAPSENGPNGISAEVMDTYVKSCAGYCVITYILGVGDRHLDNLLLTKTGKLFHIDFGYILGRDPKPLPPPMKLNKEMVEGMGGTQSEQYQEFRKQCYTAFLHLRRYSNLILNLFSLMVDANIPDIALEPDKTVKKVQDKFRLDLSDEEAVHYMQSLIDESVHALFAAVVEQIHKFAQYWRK
Sequence of Ribosomal protein S6 kinase alpha-6 (Homo sapiens) (Q9UK32 whole entry): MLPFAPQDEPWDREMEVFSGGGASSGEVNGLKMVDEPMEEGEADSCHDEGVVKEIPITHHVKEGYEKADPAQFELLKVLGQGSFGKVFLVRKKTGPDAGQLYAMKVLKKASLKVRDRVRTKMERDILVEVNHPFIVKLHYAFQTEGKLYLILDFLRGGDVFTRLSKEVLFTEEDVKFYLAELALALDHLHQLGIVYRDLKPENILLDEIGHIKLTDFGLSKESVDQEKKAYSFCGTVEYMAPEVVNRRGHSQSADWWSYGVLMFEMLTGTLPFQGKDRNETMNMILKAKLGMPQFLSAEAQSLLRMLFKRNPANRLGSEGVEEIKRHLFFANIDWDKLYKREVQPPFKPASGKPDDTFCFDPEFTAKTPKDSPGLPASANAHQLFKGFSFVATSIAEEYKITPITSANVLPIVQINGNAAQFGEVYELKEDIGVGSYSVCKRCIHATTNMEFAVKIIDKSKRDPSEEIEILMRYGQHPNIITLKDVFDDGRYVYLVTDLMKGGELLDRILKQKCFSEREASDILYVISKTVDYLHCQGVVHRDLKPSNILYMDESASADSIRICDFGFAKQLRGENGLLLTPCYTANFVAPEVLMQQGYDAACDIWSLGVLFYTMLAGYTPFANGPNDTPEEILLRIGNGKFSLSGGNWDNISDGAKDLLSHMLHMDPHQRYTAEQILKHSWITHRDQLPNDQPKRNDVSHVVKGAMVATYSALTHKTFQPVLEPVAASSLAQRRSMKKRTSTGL
Sequence of Inhibitor of nuclear factor kappa-B kinase subunit epsilon (Homo sapiens) (Q14164 whole entry): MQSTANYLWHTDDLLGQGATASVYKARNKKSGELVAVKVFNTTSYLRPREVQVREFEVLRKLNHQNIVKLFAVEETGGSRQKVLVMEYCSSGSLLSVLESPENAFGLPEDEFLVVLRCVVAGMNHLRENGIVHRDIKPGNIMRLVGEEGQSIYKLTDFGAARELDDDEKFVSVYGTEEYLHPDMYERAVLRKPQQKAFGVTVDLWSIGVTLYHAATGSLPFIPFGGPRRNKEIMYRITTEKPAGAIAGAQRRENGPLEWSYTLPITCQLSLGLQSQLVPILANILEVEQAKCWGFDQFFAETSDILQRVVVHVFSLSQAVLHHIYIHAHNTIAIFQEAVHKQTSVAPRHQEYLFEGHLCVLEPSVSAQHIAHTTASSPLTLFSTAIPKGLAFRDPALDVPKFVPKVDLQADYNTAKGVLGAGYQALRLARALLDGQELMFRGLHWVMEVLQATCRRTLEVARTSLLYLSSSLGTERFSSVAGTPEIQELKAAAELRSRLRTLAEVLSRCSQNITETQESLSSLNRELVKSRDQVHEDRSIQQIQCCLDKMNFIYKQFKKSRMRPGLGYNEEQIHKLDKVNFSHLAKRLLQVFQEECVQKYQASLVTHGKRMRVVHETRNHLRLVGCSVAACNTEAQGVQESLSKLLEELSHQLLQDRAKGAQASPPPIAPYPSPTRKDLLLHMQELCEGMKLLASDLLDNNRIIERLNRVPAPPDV

## CC1=C(C#N)C(c2ccc3[nH]nc(C)c3c2)C(C#N)=C(C)N1 [BAY-474]
[1]
  inhibition: 11%
[2]
  inhibition: -9%
[3]
  inhibition: -2%
[4]
  inhibition: -10%
[5]
  inhibition: 15%
[6]
  inhibition: -7%
[7]
  inhibition: 4%
[8]
  inhibition: 9%
[9]
  inhibition: 6%
[10]
  inhibition: -4%
[11]
  inhibition: 23%
[12]
  inhibition: 0%

## CC1=C(C#N)[C@@H](c2ccc3[nH]nc(C)c3c2)C(C#N)=C(c2ccc(Cl)cc2)N1 [BAY-827]
[13]
  residual activity: 75.1%
[14]
  residual activity: 100%
[15]
  residual activity: 100%
[16]
  residual activity: 100%
[17]
  residual activity: 96.3%
[18]
  residual activity: 100%
[19]
  residual activity: 100%
[20]
  residual activity: 62.4%
[21]
  residual activity: 65.2%
[22]
  residual activity: 77.4%
[23]
  residual activity: 100%
[24]
  residual activity: 100%
[25]
  residual activity: 100%
[26]
  residual activity: 90.4%
[27]
  residual activity: 81.4%
[28]
  residual activity: 100%
[29]
  residual activity: 99.9%
[30]
  residual activity: 100%
[31]
  residual activity: 82.1%
[32]
  inhibition: 16.9%
[33]
  residual activity: 100%
[34]
  residual activity: 100%
[35]
  residual activity: 93.2%
[36]
  residual activity: 100%
[37]
  residual activity: 100%
[38]
  residual activity: 88.1%
[39]
  residual activity: 43.8%
[40]
  residual activity: 100%
[41]
  residual activity: 100%
[42]
  residual activity: 100%
[43]
  residual activity: 100%
